Tests used:
human SLC6A19 and TMEM27 [1] = target: T1, human SLC6A19 and TMEM27 (Homo sapiens, UniProt Q695T7); test: Radiolabelled (3H) leucine uptake in CHO cells with doxycycline-inducible expression of human SLC6A19 and TMEM27 (Example B-1); format: cell-based; details: CHO cells with doxycycline-inducible expression of human SLC6A19 and TMEM27, read-out: SLC6A19_Radioligand Uptake Assay IC50
T1 construct: expressed in transfected cells
T1 sequence (Q695T7 1-634): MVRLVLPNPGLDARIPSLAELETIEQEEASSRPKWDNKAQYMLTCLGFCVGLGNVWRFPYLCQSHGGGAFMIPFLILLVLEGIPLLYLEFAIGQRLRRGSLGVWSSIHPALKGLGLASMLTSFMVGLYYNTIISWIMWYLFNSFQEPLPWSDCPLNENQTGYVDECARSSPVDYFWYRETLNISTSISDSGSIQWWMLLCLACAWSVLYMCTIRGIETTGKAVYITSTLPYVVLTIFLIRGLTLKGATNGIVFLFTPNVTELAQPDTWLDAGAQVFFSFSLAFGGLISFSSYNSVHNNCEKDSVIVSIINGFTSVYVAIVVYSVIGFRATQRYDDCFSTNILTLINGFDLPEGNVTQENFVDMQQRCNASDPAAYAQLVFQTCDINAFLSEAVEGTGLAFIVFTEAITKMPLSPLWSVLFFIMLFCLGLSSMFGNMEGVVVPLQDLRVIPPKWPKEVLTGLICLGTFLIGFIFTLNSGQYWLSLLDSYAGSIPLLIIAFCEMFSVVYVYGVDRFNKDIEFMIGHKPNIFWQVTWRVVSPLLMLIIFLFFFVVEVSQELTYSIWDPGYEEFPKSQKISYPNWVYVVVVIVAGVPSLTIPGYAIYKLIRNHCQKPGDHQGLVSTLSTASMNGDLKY
T1 sequence (Q9HBJ8 15-222 partner): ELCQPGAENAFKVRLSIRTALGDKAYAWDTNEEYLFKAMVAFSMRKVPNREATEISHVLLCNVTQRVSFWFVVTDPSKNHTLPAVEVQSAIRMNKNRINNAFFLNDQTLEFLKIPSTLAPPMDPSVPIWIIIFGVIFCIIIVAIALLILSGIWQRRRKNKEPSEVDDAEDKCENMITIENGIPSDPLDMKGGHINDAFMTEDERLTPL
Procedure, shortened: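 CHO cells were induced with doxycycline for 18 h at 37 °C, washed in HBSS, then exposed to compounds for 1 h: 8-point, 3-fold dilutions in duplicate, 0.5% DMSO final. Uptake measured by scintillation counting after 2 h shaking. Activity normalized with positive control as 0% and DMSO as 100%.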

human SLC6A19 and TMEM27 [2] = target: T1, human SLC6A19 and TMEM27; test: 13C6,15N-isoleucine uptake in CHO cells with doxycycline-inducible expression of human SLC6A19 and TMEM27, RapidFire mass spectrometry (Example B-2); format: cell-based; details: read-out: SLC6A19_RapidFire Uptake Assay IC50
Procedure, shortened: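 Read-out is RapidFire mass-spec peak area of 13C6,15N-isoleucine taken up over 20 min at 37 °C, after 20 min compound pre-exposure in pH 7.2 HEPES-buffered saline. Cells: doxycycline-induced CHO co-expressing human SLC6A19 and TMEM27; compounds as duplicate 10-point 2-fold dilutions, positive control setting 0% activity.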

For `O=C(NCc1cc2cc(F)c(NCc3ccon3)cc2[nH]1)N1CCCC1` [Compound 471, N-((5-fluoro-6-((isoxazol-3-ylmethyl)amino)-1H-indol-2-yl)methyl)pyrrolidine-1-carboxamide], the IC50 (human SLC6A19 and TMEM27 [1]) was 599 nM and the IC50 (human SLC6A19 and TMEM27 [2]) was 1090 nM.

`O=C(NCc1cc2cc(Cl)c(NCc3cscn3)cc2[nH]1)N1CCC1` [Compound 472, N-((5-chloro-6-((thiazol-4-ylmethyl)amino)-1H-indol-2-yl)methyl)azetidine-1-carboxamide] showed an IC50 (human SLC6A19 and TMEM27 [1]) of 304 nM and an IC50 (human SLC6A19 and TMEM27 [2]) of 397 nM.

For `Cc1cc2c(Cl)c(CNC(=O)N3CCC3)[nH]c2cc1OCc1cscn1` [Compound 475, N-((3-chloro-5-methyl-6-(thiazol-4-ylmethoxy)-1H-indol-2-yl)methyl)azetidine-1-carboxamide], the IC50 (human SLC6A19 and TMEM27 [1]) was 432 nM and the IC50 (human SLC6A19 and TMEM27 [2]) was 138 nM.

For `O=C(NCc1cc2cc(C(F)(F)F)c(OCc3cscn3)cc2[nH]1)N1CCC1` [Compound 478, N-((6-(thiazol-4-ylmethoxy)-5-(trifluoromethyl)-1H-indol-2-yl)methyl)azetidine-1-carboxamide], the IC50 (human SLC6A19 and TMEM27 [1]) was 416 nM and the IC50 (human SLC6A19 and TMEM27 [2]) was 172 nM.

Work on `O=C(NCc1cc2cc(C(F)(F)F)c(OCc3cscn3)cc2[nH]1)N1CCCC1` [Compound 479, N-((6-(thiazol-4-ylmethoxy)-5-(trifluoromethyl)-1H-indol-2-yl)methyl)pyrrolidine-1-carboxamide] yielded an IC50 (human SLC6A19 and TMEM27 [1]) of 1670 nM and an IC50 (human SLC6A19 and TMEM27 [2]) of 545 nM.

Work on `Cc1cc(COc2cc3[nH]c(CNC(=O)N4CCC4)cc3cc2F)on1` [Compound 481, N-((5-fluoro-6-((3-methylisoxazol-5-yl)methoxy)-1H-indol-2-yl)methyl)azetidine-1-carboxamide] yielded an IC50 (human SLC6A19 and TMEM27 [1]) of 318 nM and an IC50 (human SLC6A19 and TMEM27 [2]) of 297 nM.

With `CC(C)(C)C(=O)NCc1cc2cc(Cl)c(OCc3ccon3)cc2[nH]1` [Compound 493, N-((5-chloro-6-(isoxazol-3-ylmethoxy)-1H-indol-2-yl)methyl)pivalamide] the IC50 (human SLC6A19 and TMEM27 [1]) was 1440 nM and the IC50 (human SLC6A19 and TMEM27 [2]) was 1140 nM.

`CCC(=O)NCc1cc2cc(Cl)c(OCc3cccc(F)n3)cc2[nH]1` [Compound 494, N-((5-chloro-6-((6-fluoropyridin-2-yl)methoxy)-1H-indol-2-yl)methyl)propionamide] showed an IC50 (human SLC6A19 and TMEM27 [1]) of 148 nM and an IC50 (human SLC6A19 and TMEM27 [2]) of 35.7 nM.

Compound `O=C(NCc1cc2cc(Cl)c(OCc3cscn3)cc2[nH]1)C1CC(F)(F)C1` [Compound 495, N-((5-chloro-6-(thiazol-4-ylmethoxy)-1H-indol-2-yl)methyl)-3,3-difluorocyclobutane-1-carboxamide] has an IC50 (human SLC6A19 and TMEM27 [1]) of 397 nM and an IC50 (human SLC6A19 and TMEM27 [2]) of 240 nM.

For `Cn1ncc(COc2cc3[nH]c(CNC(=O)C4(C)CC4)cc3cc2F)n1` [Compound 496, N-((5-fluoro-6-((2-methyl-2H-1,2,3-triazol-4-yl)methoxy)-1H-indol-2-yl)methyl)-1-methylcyclopropane-1-carboxamide], the IC50 (human SLC6A19 and TMEM27 [1]) was 430 nM and the IC50 (human SLC6A19 and TMEM27 [2]) was 424 nM.

`O=C(NCc1cc2cc(F)c(OCc3cccc(F)n3)cc2[nH]1)C1CC1` [Compound 497, N-((5-fluoro-6-((6-fluoropyridin-2-yl)methoxy)-1H-indol-2-yl)methyl)cyclopropanecarboxamide] gave an IC50 (human SLC6A19 and TMEM27 [1]) of 197 nM and an IC50 (human SLC6A19 and TMEM27 [2]) of 184 nM.

`Cn1ncc(COc2cc3[nH]c(CNC(=O)C4CC4)cc3cc2Cl)n1` [Compound 498, N-((5-chloro-6-((2-methyl-2H-1,2,3-triazol-4-yl)methoxy)-1H-indol-2-yl)methyl)cyclopropanecarboxamide] was tested, and the IC50 (human SLC6A19 and TMEM27 [1]) was 159 nM and the IC50 (human SLC6A19 and TMEM27 [2]) was 90.2 nM.

With `O=C(NCc1cc2cc(Cl)c(OCc3cccc(F)n3)cc2[nH]1)C1CC1` [Compound 499, N-((5-chloro-6-((6-fluoropyridin-2-yl)methoxy)-1H-indol-2-yl)methyl)cyclopropanecarboxamide] the IC50 (human SLC6A19 and TMEM27 [1]) was 213 nM and the IC50 (human SLC6A19 and TMEM27 [2]) was 55.4 nM.

With `CC(C)C(=O)NCc1cc2cc(Cl)c(OCc3cocn3)cc2[nH]1` [Compound 500, N-((5-chloro-6-(oxazol-4-ylmethoxy)-1H-indol-2-yl)methyl)isobutyramide] the IC50 (human SLC6A19 and TMEM27 [1]) was 195 nM and the IC50 (human SLC6A19 and TMEM27 [2]) was 257 nM.

`CC(C)C(=O)NCc1cc2cc(F)c(OCc3cocn3)cc2[nH]1` [Compound 501, N-((5-fluoro-6-(oxazol-4-ylmethoxy)-1H-indol-2-yl)methyl)isobutyramide] gave an IC50 (human SLC6A19 and TMEM27 [1]) of 312 nM and an IC50 (human SLC6A19 and TMEM27 [2]) of 1300 nM.

Work on `CC1(C(=O)NCc2cc3cc(F)c(OCc4ccon4)cc3[nH]2)CCC1` [Compound 502, N-((5-fluoro-6-(isoxazol-3-ylmethoxy)-1H-indol-2-yl)methyl)-1-methylcyclobutane-1-carboxamide] yielded an IC50 (human SLC6A19 and TMEM27 [1]) of 2130 nM and an IC50 (human SLC6A19 and TMEM27 [2]) of 1780 nM.

Compound `O=C(NCc1cc2cc(Cl)c(OCc3ccccn3)cc2[nH]1)C1CC1` [Compound 503, N-((5-chloro-6-(pyridin-2-ylmethoxy)-1H-indol-2-yl)methyl)cyclopropanecarboxamide] has an IC50 (human SLC6A19 and TMEM27 [1]) of 317 nM and an IC50 (human SLC6A19 and TMEM27 [2]) of 66.7 nM.

In the case of `CC1(C(=O)NCc2cc3cc(Cl)c(OCc4ccon4)cc3[nH]2)CCC1` [Compound 504, N-((5-chloro-6-(isoxazol-3-ylmethoxy)-1H-indol-2-yl)methyl)-1-methylcyclobutane-1-carboxamide], the IC50 (human SLC6A19 and TMEM27 [1]) is reported as 391 nM and the IC50 (human SLC6A19 and TMEM27 [2]) is reported as 406 nM.

`CC1(C(=O)NCc2cc3cc(F)c(NCc4cscn4)cc3[nH]2)CC1` [Compound 523, N-((5-fluoro-6-((thiazol-4-ylmethyl)amino)-1H-indol-2-yl)methyl)-1-methylcyclopropane-1-carboxamide] was tested, and the IC50 (human SLC6A19 and TMEM27 [1]) was 208 nM and the IC50 (human SLC6A19 and TMEM27 [2]) was 239 nM.

`CC1(C(=O)NCc2cc3cc(F)c(NCc4ccon4)cc3[nH]2)CC1` [Compound 524, N-((5-fluoro-6-((isoxazol-3-ylmethyl)amino)-1H-indol-2-yl)methyl)-1-methylcyclopropane-1-carboxamide] showed an IC50 (human SLC6A19 and TMEM27 [1]) of 400 nM and an IC50 (human SLC6A19 and TMEM27 [2]) of 570 nM.

`Cc1cc2cc(CNC(=O)N3CCC3)[nH]c2cc1OCc1cscn1` [Compound 528, N-((5-methyl-6-(thiazol-4-ylmethoxy)-1H-indol-2-yl)methyl)azetidine-1-carboxamide] showed an IC50 (human SLC6A19 and TMEM27 [1]) of 278 nM and an IC50 (human SLC6A19 and TMEM27 [2]) of 292 nM.

With `CCC(=O)NCc1cc2cc(C)c(OCc3cscn3)cc2[nH]1` [Compound 529, N-((5-methyl-6-(thiazol-4-ylmethoxy)-1H-indol-2-yl)methyl)propionamide] the IC50 (human SLC6A19 and TMEM27 [1]) was 192 nM and the IC50 (human SLC6A19 and TMEM27 [2]) was 154 nM.

For `CCC(=O)NCc1cc2cc(C)c(OCc3ccon3)cc2[nH]1` [Compound 530, N-((6-(isoxazol-3-ylmethoxy)-5-methyl-1H-indol-2-yl)methyl)propionamide], the IC50 (human SLC6A19 and TMEM27 [1]) was 171 nM and the IC50 (human SLC6A19 and TMEM27 [2]) was 208 nM.

Work on `Cc1cc2cc(CNC(=O)N3CCCC3)[nH]c2cc1OCc1cscn1` [Compound 531, N-((5-methyl-6-(thiazol-4-ylmethoxy)-1H-indol-2-yl)methyl)pyrrolidine-1-carboxamide] yielded an IC50 (human SLC6A19 and TMEM27 [1]) of 295 nM and an IC50 (human SLC6A19 and TMEM27 [2]) of 164 nM.

With `Cc1cc2cc(CNC(=O)N3CCC3)[nH]c2cc1OCc1ccon1` [Compound 532, N-((6-(isoxazol-3-ylmethoxy)-5-methyl-1H-indol-2-yl)methyl)azetidine-1-carboxamide] the IC50 (human SLC6A19 and TMEM27 [1]) was 509 nM and the IC50 (human SLC6A19 and TMEM27 [2]) was 632 nM.

For `Cc1cc2cc(CNC(=O)N3CCCC3)[nH]c2cc1OCc1ccon1` [Compound 533, N-((6-(isoxazol-3-ylmethoxy)-5-methyl-1H-indol-2-yl)methyl)pyrrolidine-1-carboxamide], the IC50 (human SLC6A19 and TMEM27 [1]) was 332 nM and the IC50 (human SLC6A19 and TMEM27 [2]) was 330 nM.

`Cc1nc(COc2cc3[nH]c(CNC(=O)C4(C)CC4)cc3cc2F)co1` [Compound 547, N-((5-fluoro-6-((2-methyloxazol-4-yl)methoxy)-1H-indol-2-yl)methyl)-1-methylcyclopropane-1-carboxamide] showed an IC50 (human SLC6A19 and TMEM27 [1]) of 363 nM and an IC50 (human SLC6A19 and TMEM27 [2]) of 314 nM.

`CCC(=O)NCc1cc2cc(F)c(OCc3cc(C)no3)cc2[nH]1` [Compound 548, N-((5-fluoro-6-((3-methylisoxazol-5-yl)methoxy)-1H-indol-2-yl)methyl)propionamide] gave an IC50 (human SLC6A19 and TMEM27 [1]) of 100 nM and an IC50 (human SLC6A19 and TMEM27 [2]) of 54.5 nM.

Work on `Cc1nc(COc2cc3[nH]c(CNC(=O)C4CC4)cc3cc2F)co1` [Compound 549, N-((5-fluoro-6-((2-methyloxazol-4-yl)methoxy)-1H-indol-2-yl)methyl)cyclopropanecarboxamide] yielded an IC50 (human SLC6A19 and TMEM27 [1]) of 426 nM and an IC50 (human SLC6A19 and TMEM27 [2]) of 833 nM.

In the case of `CCC(=O)NCc1cc2cc(F)c(OCc3coc(C)n3)cc2[nH]1` [Compound 550, N-((5-fluoro-6-((2-methyloxazol-4-yl)methoxy)-1H-indol-2-yl)methyl)propionamide], the IC50 (human SLC6A19 and TMEM27 [1]) is reported as 552 nM and the IC50 (human SLC6A19 and TMEM27 [2]) is reported as 1040 nM.

— patent US20240199546A1, “INHIBITORS OF SOLUTE CARRIER FAMILY 6A MEMBER 19 (SLC6A19) AND METHODS OF USE THEREOF” (Maze Therapeutics, Inc., priority 2022, published 2024)
